The record followed here is patent publication US7148245B2, “Biphenyl derivatives substituted with an aromatic or heteroaromatic radical, and pharmaceutical and cosmetic compositions containing them” (Galderma Research & Development, priority 1997, dated 2006).

In general, melting point refers to the temperature, or range, at which the solid turns liquid.

Structures are written as SMILES.

As to `COCOc1cc(C(=O)O)ccc1-c1ccc(-c2ccccc2)c(-c2ccc3c(c2)C(C)(C)CCC3(C)C)c1` [Example 43, 2″-Methoxymethoxy-2′-(5,5,8,8-tetramethyl-5,6,7,8-tetrahydro-2-naphthyl)-[1,1′;4′,1″]terphenyl-4″-carboxylic acid], the melting point fell in the range of 204 to 206 °C.

Molecule `CC1(C)CCC(C)(C)c2cc(-c3cc(-c4ccc(C(=O)O)cc4)ccc3OCc3ccccc3)ccc21` [Example 9, 4-[4-Benzyloxy-3-(5,6,7,8-tetrahydro-5,5,8,8-tetramethyl-2-naphthyl)phenyl]benzoic acid] registered a melting point of 241 to 244 °C.

For `COc1c(-c2ccc(C(=O)O)cc2)cccc1-c1ccc2c(c1)C(C)(C)CCC2(C)C`, the melting point came out at 205 °C.

Molecule `CC1(C)CCC(C)(C)c2cc(-c3cc(-c4ccc(C(=O)O)cc4)ccc3-c3ccccc3)ccc21` [Example 14, 2′-(5,5,8,8-Tetramethyl-5,6,7,8-tetrahydro-2-naphthyl)-[1,1′;4′,1″]terphenyl-4″-carboxylic acid] registered a melting point of 287 to 288 °C.

In the case of `CC1(C)CCSc2cc(-c3cc(-c4ccc(C(=O)O)cc4)ccc3-c3ccccc3)ccc21`, the melting point is 261 °C.

As for `CC1(C)CCC(C)(C)c2cc(-c3cc(-c4ccc(C(=O)O)cc4)ccc3OCCCCCCO)ccc21` [Example 3, 4-[4-(6-Hydroxyhexyloxy)-3-(5,6,7,8-tetrahydro-5,5,8,8-tetramethyl-2-naphthyl)phenyl]benzoic acid], the melting point was in the range of 200 to 201 °C.

With `CC1(C)CCC(C)(C)c2cc(-c3cc(-c4ccc(C(=O)O)cc4)ccc3C(=O)O)ccc21`, the melting point was 343 °C.

Turning to `CC1(C)CCC(C)(C)c2cc(-c3cc(-c4ccc(C(=O)O)cc4O)ccc3-c3ccccc3)ccc21` [Example 42, 2″-Hydroxy-2′-(5,5,8,8-tetramethyl-5,6,7,8-tetrahydro-2-naphthyl)-[1,1′;4′,1″]terphenyl-4″-carboxylic acid], the melting point fell in the range of 282 to 284 °C.

`COCOc1c(-c2ccc(C(=O)O)cc2)cccc1-c1ccc2c(c1)C(C)(C)CCC2(C)C` yielded a melting point of 176 °C.

Regarding `CC1(C)CCC(C)(C)c2cc(-c3cc(-c4ccc(C(=O)O)nc4)ccc3-c3ccccc3)ccc21` [Example 48, 5-[2-(5,5,8,8-Tetramethyl-5,6,7,8-tetrahydro-2-naphthyl)biphenyl-4-yl]-2-pyridinecarboxylic acid], the melting point was in the range of 222 to 224 °C.

For `CCOC(=O)CCCCCOc1ccc(-c2ccc(C(=O)O)cc2)cc1-c1ccc2c(c1)C(C)(C)CCC2(C)C` [Example 55, 4′-(5-Ethoxycarbonylpentyloxy)-3′-(5,5,8,8-tetramethyl-5,6,7,8-tetrahydro-2-naphthyl)biphenyl-4-carboxylic acid], the melting point was determined as 177 °C.

In turn, `CC1(C)CCC(C)(C)c2cc(-c3cc(-c4ccc(C(=O)O)cc4)ccc3OCCN3CCOCC3)ccc21` [Example 12, 4′-(2-Morpholin-4-ylethoxy)-3′-(5,5,8,8-tetramethyl-5,6,7,8-tetrahydro-2-naphthyl)biphenyl-4-carboxylic acid] yielded a melting point of 270 to 272 °C.

For the molecule `COCOc1cccc(-c2ccc(-c3ccc(C(=O)O)cc3)cc2-c2ccc3c(c2)C(C)(C)CCC3(C)C)c1` [Example 18, 3-Methoxymethoxy-2′-(5,5,8,8-tetramethyl-5,6,7,8-tetrahydro-2-naphthyl)-[1,1′;4′,1″]terphenyl-4″-carboxylic acid], the melting point came to 212 °C.

The molecule `CCCOc1cc2c(cc1-c1cc(-c3ccc(C(=O)O)cc3)ccc1-c1ccccc1)C(C)(C)CCC2(C)C` [Example 40, 2′-(3-Propyloxy-5,5,8,8-tetramethyl-5,6,7,8-tetrahydro-2-naphthyl)-[1,1′;4′,1″]terphenyl-4″-carboxylic acid] gave a melting point of 234 °C.

With `COc1cccc(-c2ccc(-c3ccc(C(=O)O)cc3)cc2-c2ccc3c(c2)C(C)(C)CCC3(C)C)c1` [Example 20, 3-Methoxy-2′-(5,5,8,8-tetramethyl-5,6,7,8-tetrahydro-2-naphthyl)-[1,1′;4′,1″]terphenyl-4″-carboxylic acid], the melting point is 258 to 259 °C.

As for `CC1(C)CCC(C)(C)c2cc(-c3cc(-c4ccc(C(=O)O)cc4)ccc3OCCCCCCCCO)ccc21` [Example 5, 4-[4-(8-Hydroxyoctyloxy)-3-(5,6,7,8-tetrahydro-5,5,8,8-tetramethyl-2-naphthyl)phenyl]benzoic acid], the melting point lay within 155 to 160 °C.

`CC1(C)CCC(C)(C)c2cc(-c3cc(-c4ccc(C(=O)O)cc4)ccc3-c3ccccc3O)ccc21` [Example 22, 2-hydroxy-2′-(5,5,8,8-tetramethyl-5,6,7,8-tetrahydro-2-naphthyl)-[1,1′;4′,1″]terphenyl-4″-carboxylic acid] had a melting point of 265 to 269 °C.

`CC1(C)CCC(C)(C)c2cc(-c3cc(-c4ccc(C(=O)O)c(O)c4)ccc3-c3ccccc3)ccc21` [Example 46, 3″-Hydroxy-2′-(5,5,8,8-tetramethyl-5,6,7,8-tetrahydro-2-naphthyl)-[1,1′;4′,1″]terphenyl-4″-carboxylic acid] yielded a melting point of 266 to 268 °C.

On to `CC1(C)CCC(C)(C)c2cc(C3C=C(c4ccccc4)C=CC3(OCC(=O)O)C(=O)O)ccc21` (stereo not shown) [Example 54, 4′-Carboxymethoxy-3′-(5,5,8,8-tetramethyl-5,6,7,8-tetrahydro-2-naphthyl)biphenyl-4′-carboxylic acid], for which the melting point lay within 279 to 281 °C.

`COc1ccccc1-c1ccc(-c2ccc(C(=O)O)cc2)cc1-c1ccc2c(c1)C(C)(C)CCC2(C)C` [Example 23, 2-Methoxy-2′-(5,5,8,8-tetramethyl-5,6,7,8-tetrahydro-2-naphthyl)-[1,1′;4′,1″]terphenyl-4″-carboxylic acid]: the melting point was in the range of 239 to 243 °C.

`CC1(C)CCC(C)(C)c2cc(-c3cc(-c4ccc(C(=O)O)cc4)ccc3OCC(O)CO)ccc21` (racemic) [Example 10, 4′-(2,3-Dihydroxypropoxy)-3′-(5,5,8,8-tetramethyl-5,6,7,8-tetrahydro-2-naphthyl)biphenyl-4-carboxylic acid] displayed a melting point of 258 °C.

In turn, `Cc1cc2c(cc1-c1cc(-c3ccc(C(=O)O)cc3)ccc1-c1ccccc1)C(C)(C)CCC2(C)C` [Example 36, 2′-(3,5,5,8,8-Pentamethyl-5,6,7,8-tetrahydro-2-naphthyl)-[1,1′;4′,1″]terphenyl-4″-carboxylic acid] displayed a melting point of 217 °C.

`CC1(C)CCC(C)(C)c2cc(-c3cc(-c4ccc(C(=O)O)cc4)ccc3OCCCCCCCO)ccc21` [Example 4, 4-[4-(7-Hydroxyheptyloxy)-3-(5,6,7,8-tetrahydro-5,5,8,8-tetramethyl-2-naphthyl)phenyl]benzoic acid] yielded a melting point of 168 to 172 °C.

For `CC1(C)CCC(C)(C)c2cc(-c3ccc(-c4ccccc4)c(-c4ccc(C(=O)O)cc4)c3)ccc21` [Example 28, 4′-(5,5,8,8-Tetramethyl-5,6,7,8-tetrahydro-2-naphthyl)-[1,1′;2′,1″]terphenyl-4″-carboxylic acid], the melting point is 258 to 262 °C.

Regarding `CC1(C)CCC(C)(C)c2cc(-c3cc(-c4ccc(C(=O)O)cc4)ccc3OCCCCCC(=O)O)ccc21` [Example 56, 4′-(5-Carboxypentyloxy)-3′-(5,5,8,8-tetramethyl-5,6,7,8-tetrahydro-2-naphthyl)biphenyl-4-carboxylic acid], the melting point was found to be 245 °C.

In turn, `COCOc1ccc(-c2ccc3c(c2)C(C)(C)CCC3(C)C)cc1-c1ccc(C(=O)O)cc1` returned a melting point of 183 to 185 °C.

As for `COCOCc1cc(-c2ccc(C(=O)O)cc2)cc(-c2ccc3c(c2)C(C)(C)CCC3(C)C)c1`, the melting point stood at 165 °C.

For `CC1(C)CCC(C)(C)c2cc(-c3cc(CO)cc(-c4ccc(C(=O)O)cc4)c3)ccc21`, the melting point was determined as 213 °C.

As for `CC1(C)CCC(C)(C)c2cc(-c3cc(-c4ccc(C(=O)O)cc4)ccc3-c3ccccc3)c(O)cc21`, the melting point was determined as 273 °C.

`COCOc1ccccc1-c1ccc(-c2ccc(C(=O)O)cc2)cc1-c1ccc2c(c1)C(C)(C)CCC2(C)C` [Example 21, 2-Methoxymethoxy-2′-(5,5,8,8-tetramethyl-5,6,7,8-tetrahydro-2-naphthyl)-[1,1′;4′,1″]terphenyl-4″-carboxylic acid] gave a melting point of 218 to 221 °C.

`CC1(C)CCC(C)(C)c2cc(-c3cc(-c4ccc(C(=O)O)cc4)ccc3OCCCCCCCCCO)ccc21` [Example 6, 4-[4-(9-Hydroxynonyloxy)-3-(5,6,7,8-tetrahydro-5,5,8,8-tetramethyl-2-naphthyl)phenyl]benzoic acid] came in with a melting point of 147 to 150 °C.
